26 compounds from ChEMBL document CHEMBL1201862, “PubChem BioAssay data set” (2004) can be followed below.

Experiment [1] deals with T1, Replicative DNA helicase DnaB (Mycobacterium tuberculosis, UniProt P9WMR3).
T1 sequence (P9WMR3 whole entry): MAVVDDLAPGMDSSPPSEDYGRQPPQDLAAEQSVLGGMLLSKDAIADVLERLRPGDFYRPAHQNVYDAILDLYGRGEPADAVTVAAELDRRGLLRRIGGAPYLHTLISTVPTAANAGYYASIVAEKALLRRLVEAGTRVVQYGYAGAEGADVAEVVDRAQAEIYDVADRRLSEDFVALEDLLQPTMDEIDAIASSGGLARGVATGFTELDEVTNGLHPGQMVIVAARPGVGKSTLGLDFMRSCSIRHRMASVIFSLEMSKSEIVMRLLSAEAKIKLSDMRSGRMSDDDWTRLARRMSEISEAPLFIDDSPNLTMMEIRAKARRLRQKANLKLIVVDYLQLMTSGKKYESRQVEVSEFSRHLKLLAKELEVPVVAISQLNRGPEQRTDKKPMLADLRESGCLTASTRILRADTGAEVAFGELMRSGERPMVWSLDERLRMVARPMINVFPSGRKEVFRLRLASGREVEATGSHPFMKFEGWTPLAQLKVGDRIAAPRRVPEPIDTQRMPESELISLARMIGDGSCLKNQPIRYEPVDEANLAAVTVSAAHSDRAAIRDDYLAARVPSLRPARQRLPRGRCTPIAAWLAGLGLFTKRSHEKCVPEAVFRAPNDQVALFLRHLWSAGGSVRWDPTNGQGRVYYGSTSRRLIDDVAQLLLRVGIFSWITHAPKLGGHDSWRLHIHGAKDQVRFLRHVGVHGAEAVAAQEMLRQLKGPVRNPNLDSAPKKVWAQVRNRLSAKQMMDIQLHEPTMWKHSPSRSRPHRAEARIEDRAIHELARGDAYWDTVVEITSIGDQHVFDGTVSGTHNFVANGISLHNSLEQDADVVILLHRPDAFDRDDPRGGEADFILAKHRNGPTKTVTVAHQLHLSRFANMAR
Kind of experiment: DnaB intein splicing inhibitors, dose response, biochemical, cell-free fluorescence (AID 449749). The experiment is classed as functional.

A further experiment deals with T2, Protein RecA (Mycobacterium tuberculosis, UniProt P9WHJ3).
T2 sequence (P9WHJ3 whole entry): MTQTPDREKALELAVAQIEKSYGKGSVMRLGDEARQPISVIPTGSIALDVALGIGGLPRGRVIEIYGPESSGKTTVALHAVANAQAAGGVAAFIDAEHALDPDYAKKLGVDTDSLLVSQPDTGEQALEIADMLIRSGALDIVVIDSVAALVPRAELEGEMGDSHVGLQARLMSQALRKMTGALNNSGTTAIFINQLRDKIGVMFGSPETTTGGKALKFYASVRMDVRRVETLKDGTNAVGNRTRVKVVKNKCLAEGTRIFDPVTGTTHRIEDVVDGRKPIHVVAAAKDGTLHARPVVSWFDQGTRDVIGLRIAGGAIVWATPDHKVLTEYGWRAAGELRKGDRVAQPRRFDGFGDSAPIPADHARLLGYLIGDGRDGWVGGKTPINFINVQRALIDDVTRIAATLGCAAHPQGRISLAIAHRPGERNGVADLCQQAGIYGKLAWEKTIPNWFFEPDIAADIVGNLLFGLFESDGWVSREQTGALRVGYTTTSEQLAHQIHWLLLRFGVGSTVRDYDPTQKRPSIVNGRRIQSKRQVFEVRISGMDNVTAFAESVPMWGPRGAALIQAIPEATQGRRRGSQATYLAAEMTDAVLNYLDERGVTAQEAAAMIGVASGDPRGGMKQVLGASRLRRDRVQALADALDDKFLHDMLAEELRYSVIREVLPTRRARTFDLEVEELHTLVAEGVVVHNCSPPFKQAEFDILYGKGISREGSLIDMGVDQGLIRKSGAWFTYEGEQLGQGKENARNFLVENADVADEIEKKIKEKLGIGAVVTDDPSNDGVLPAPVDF
Put plainly: Fluorescence Cell-Free Homogeneous Dose Retest to Identify Inhibitors of RecA-Intein Splicing Activity. [Related pubchem assays (depositor defined):AID2097, AID2223, AID489010, AID492950]. The experiment is classed as functional.

Experiment [2] has as its system Streptococcus sp. 'group A'. Kind of experiment: growth inhibition of control SK(-) GAS strain, dose response, counter-screen for streptokinase expression inhibitor project, luminescence, kanamycin, BacTiterGlo, confirmation (AID 1900). The experiment is classed as functional, organism-based.
In a further experiment the test system is Streptococcus. Kind of experiment: Group A Streptococcus viability loss, dose response, counter-screen for streptokinase expression inhibitor project, luminescence, BacTiterGlo (AID 1915).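 Further: potency for reduction of bacterial viability or growth.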 The experiment is classed as functional, organism-based. For orientation: A counterscreen serves to expose hits that act by an unwanted route or on another target.
The next experiment has as its system INS1. Put plainly: beta cell apoptosis inhibitors, cytokine rescue, dose response, luminescence, retest (AID 449756).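 Further: cell death triggered by IL-1 beta plus TNF-alpha plus IFN-gamma mixture; protective hits raise ATP signal compared with cytokine alone wells.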 The experiment is classed as functional, cell-based. The settings on record: Rattus norvegicus.
Experiment [3] is described as follows: Luminescence Cell-Based Dose Retest to Confirm Inhibitors of Cancer Stem Cells. [Related pubchem assays (depositor defined):AID2717, AID2721]. The experiment is classed as functional. The settings on record: Homo sapiens.
Experiment [4] concerns the target T3, Corticotropin-releasing factor receptor 2/Corticotropin-releasing factor-binding protein (Homo sapiens, UniProt P24387+Q13324).
T3 sequence (Q13324 whole entry): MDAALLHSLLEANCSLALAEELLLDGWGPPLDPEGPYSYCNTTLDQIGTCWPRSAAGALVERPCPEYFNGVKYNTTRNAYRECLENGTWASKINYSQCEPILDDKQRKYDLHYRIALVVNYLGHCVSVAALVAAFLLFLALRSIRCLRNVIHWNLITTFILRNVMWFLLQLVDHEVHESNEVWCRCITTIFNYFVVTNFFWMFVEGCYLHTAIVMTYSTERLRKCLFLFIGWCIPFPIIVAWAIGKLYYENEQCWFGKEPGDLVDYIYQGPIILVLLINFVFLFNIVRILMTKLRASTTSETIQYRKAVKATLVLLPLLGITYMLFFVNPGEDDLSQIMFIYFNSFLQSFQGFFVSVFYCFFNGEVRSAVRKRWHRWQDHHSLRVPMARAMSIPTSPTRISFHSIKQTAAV
T3 sequence (P24387 whole entry): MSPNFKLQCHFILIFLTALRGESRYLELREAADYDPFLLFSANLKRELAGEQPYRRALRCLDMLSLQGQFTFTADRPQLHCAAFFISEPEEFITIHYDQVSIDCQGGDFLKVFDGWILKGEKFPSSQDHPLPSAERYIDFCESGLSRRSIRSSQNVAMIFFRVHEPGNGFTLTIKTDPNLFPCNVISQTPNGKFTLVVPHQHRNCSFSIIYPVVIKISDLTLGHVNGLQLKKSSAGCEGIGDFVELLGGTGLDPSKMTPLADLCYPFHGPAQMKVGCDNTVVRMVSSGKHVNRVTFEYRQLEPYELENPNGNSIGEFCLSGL
Kind of experiment: activators of CRF receptor 2 with binding protein – uHTS hits, confirmation (AID 602473). Format: functional. The settings on record: read-out: EC50_Mean.

Another experiment has as its target Cytochrome P450 2C19 (Homo sapiens, UniProt P33261). Put plainly: Cytochrome panel assay with activity outcomes. Panel member name: p450-cyp2c19 Compounds with AC50 equal or less than 10 uM are considered active. The following applies: read-out: AC50. Format: functional.
Another experiment has as its target T4, Cytochrome P450 1A2 (Homo sapiens, UniProt P05177).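 Further: PubChem cytochrome P450 panel assay, CYP1A2 panel member.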
T4 sequence (P05177 whole entry): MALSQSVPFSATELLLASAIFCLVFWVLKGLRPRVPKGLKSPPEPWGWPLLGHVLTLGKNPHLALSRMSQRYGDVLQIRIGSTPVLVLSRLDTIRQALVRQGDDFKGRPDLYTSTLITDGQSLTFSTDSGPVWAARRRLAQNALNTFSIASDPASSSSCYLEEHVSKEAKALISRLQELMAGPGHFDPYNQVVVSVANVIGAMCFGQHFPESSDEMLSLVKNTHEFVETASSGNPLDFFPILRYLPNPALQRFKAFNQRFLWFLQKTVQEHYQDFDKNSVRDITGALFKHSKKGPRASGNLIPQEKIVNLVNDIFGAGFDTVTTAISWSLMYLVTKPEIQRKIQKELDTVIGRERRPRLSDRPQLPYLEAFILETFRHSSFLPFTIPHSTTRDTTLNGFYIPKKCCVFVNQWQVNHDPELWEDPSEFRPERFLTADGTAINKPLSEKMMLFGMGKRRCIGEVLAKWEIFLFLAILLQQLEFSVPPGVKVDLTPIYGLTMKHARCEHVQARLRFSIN

A short description of experiment [5]: inhibitors of intracellular T. cruzi replication, confirmation, NIH3T3 host cells, beta-gal luminescence (AID 2044).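 Further: intracellular parasites grown in NIH/3T3 mouse fibroblasts as host cells; luminescent beta-galactosidase reporter signal from transgenic T. cruzi replicating inside host cells; inhibitors lower the luminescence signal.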 The experiment is classed as functional, cell-based.
Experiment [6] in a line: cytotoxicity toward NIH3T3 fibroblasts, dose response, counter-screen, cell-based, ATP luminescence, mouse fibroblasts (AID 2010).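 Further: cells exposed to compound for about 90 hours before reading.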 The experiment is classed as functional.

Molecules are shown by their SMILES. Activity calls are given as the source filed them. Where only a bound is given, the exact number is not on record here.

Cytochrome P450 2C19, sequence (P33261 whole entry): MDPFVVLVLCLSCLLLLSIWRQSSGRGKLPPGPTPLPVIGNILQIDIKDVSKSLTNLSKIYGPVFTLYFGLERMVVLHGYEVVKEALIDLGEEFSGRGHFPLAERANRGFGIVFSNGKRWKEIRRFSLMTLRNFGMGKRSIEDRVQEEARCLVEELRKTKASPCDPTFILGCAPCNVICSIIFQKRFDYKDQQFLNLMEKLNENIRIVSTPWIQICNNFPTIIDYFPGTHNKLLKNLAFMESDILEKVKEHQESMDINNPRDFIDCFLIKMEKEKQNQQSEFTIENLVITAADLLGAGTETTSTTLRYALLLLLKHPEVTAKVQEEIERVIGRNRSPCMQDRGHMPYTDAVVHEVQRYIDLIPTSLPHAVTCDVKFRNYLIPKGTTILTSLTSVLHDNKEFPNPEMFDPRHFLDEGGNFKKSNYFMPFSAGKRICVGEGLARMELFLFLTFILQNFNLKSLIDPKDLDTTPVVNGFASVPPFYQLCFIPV

Turning to `CC(C)c1n[nH]c2c1C(c1ccc(OC(=O)c3ccco3)cc1)C(C#N)=C(N)O2` (centres undefined), in experiment [1], the half-maximal activity concentration (AC50) (in general, the midpoint of the concentration-response curve, whichever way the signal moves) is 6.85 µM (active). For the same compound, the EC50 on Protein RecA is 3.02 µM (active).
On the same counts, the results for `Cc1c(C)n(O)c2ccc3nonc3c12` are > 380 µM (inactive) and 3.67 µM (active).
In the case of `COC(=O)c1cccc(NC(S)=NCc2ccc(Cl)cc2)c1`, the EC50 in [2] was 13 µM (active); with Streptococcus, 15.8 µM (active).
As for `CC1=NNC(=O)C1Cc1ccccc1C` (centres undefined), the AC50 in experiment [1] is 0.538 µM (active). Further, the EC50 at Protein RecA was 0.329 µM (active).
Turning to `NNc1ncnc2scc(-c3ccc(Cl)cc3)c12`, the AC50 with INS1 was 6.34 µM (active).
Turning to `Cc1nnc(SCC2=C(C(=O)O)N3C(=O)C(NC(=O)Cn4nc(C)c(Cl)c4C)C3SC2)s1` (centres undefined), the results for the EC50 (in experiment [2]; in the experiment on Streptococcus) were < 0.06 µM (active) and 0.115 µM (active), respectively.
For `O=C(C[n+]1ccccc1)NNc1ccccc1`, the AC50 in experiment [3] was 1.47 µM (active).
With `Cc1ccccc1NS(=O)(=O)c1cc2c(cc1C)NC(=O)CO2`, the EC50 in experiment [4] is > 53 µM (inactive).
In the case of `C=C(C)C(=O)NC1=NN(c2ccccc2)C(=O)C1`, the AC50 in experiment [1] was 3.66 µM (active). Further, on Protein RecA, the EC50 was 37 µM (active).
For `c1ccc(CCNCc2cccs2)cc1` the same measures were > 380 µM (inactive) and > 380 µM (inactive).
With `CCOC(=O)c1ccc(Nc2cc(C)nc(-c3ccccc3)n2)cc1`, the concentration at half-maximal activity (AC50) in experiment [3] was 2.1 µM (active).
In the case of `Clc1ccc(C2=C3CCCCn4c(-c5ccccc5)c[n+](c43)C2)cc1`, the half-maximal activity concentration (AC50) on Cytochrome P450 2C19 is 1.12 µM (inconclusive); in experiment [1] it was > 380 µM (inactive); at Cytochrome P450 1A2, 12.6 µM (inconclusive). Further, the EC50 at Protein RecA is 50 µM (active).
Turning to `COc1ccc(OC)c(-c2cc(-c3cccnc3)nc(N)c2C#N)c1`, the AC50 in experiment [3] is 0.766 µM (active).
In the case of `CC1(C)C(C=C(Cl)Cl)C1C(=O)Nc1ccc([N+](=O)[O-])cc1` (centres undefined), the AC50 with INS1 was 7.67 µM (active).
Take `Cn1c(-c2ccccc2)cc2c3no[n+]([O-])c3ccc21`: the EC50 in experiment [5] is 0.707 µM (active); in experiment [6], 8.01 µM (active). The AC50 in the experiment with INS1 is 2.09 µM (active).
Turning to `CC(=O)Nc1ccc(C2=CC(=O)C[C@H](c3ccc4c(c3)OCO4)C2)cc1`, the AC50 in the experiment on INS1 is > 260 µM (inactive).
On to `COc1ccc(/C=C/C(=O)c2ccncc2)c2ccccc12`, for which the AC50 in experiment [3] is 11.8 µM (active); in experiment [1], > 120 µM (inactive); with INS1, 26.7 µM (active). Besides, the EC50 at Protein RecA is 8.84 µM (active).
Regarding `O=C(NCC(c1cccs1)N1CCOCC1)c1ccc(Cl)s1` (centres undefined), in [3], the AC50 was 2.89 µM (active).
Regarding `CCc1c(C)sc(NC(=O)/C=C/c2ccc3c(c2)OCO3)c1C(=O)OC`, the AC50 in experiment [3] is 0.768 µM (active).
For the compound `Cc1ccc(C(c2c(C)n[nH]c2O)c2c(C)n[nH]c2O)cc1`, the AC50 in [1] is 0.36 µM (active). In addition, the EC50 at Protein RecA was 0.248 µM (active).
Regarding `CCOCCCNC(=O)c1cnc2cc(OC)ccc2c1O`, the AC50 in the experiment with INS1 was > 260 µM (inactive).
The same measure, in the same setting: in the case of `COc1ccc(-c2nn(-c3ccccc3)cc2/C=N/Nc2ccc3ccccc3n2)cc1OC` it was 1.5 µM (active); in that of `CCc1ccc(-n2c(C)cc(/C=N/NC(=O)c3ccncc3)c2C)cc1`, 14.9 µM (active).
On to `Cc1ccc(/N=C2\C(Cl)=C(O)OC2OC(=O)c2ccco2)cc1C` (centres undefined), for which the AC50 in experiment [1] was 11.5 µM (active). The EC50 at Protein RecA was 8.65 µM (active).
On the same counts, the results for `Cc1ccc(Sc2oc(/C=N/n3cnnc3)cc2Br)cc1` are 4.42 µM (active) and 9.82 µM (active).
With `COc1cc([N+](=O)[O-])ccc1NC(=O)CC1S/C(=N\c2ccc(F)cc2)N(CCC2=CCCCC2)C1=O` (centres undefined), in the experiment with INS1, the AC50 was 4.29 µM (active).
